Like-named read-outs stand apart in the source and are kept apart here. Values belong to the molecule of their own block, whether it stands above or below them.
How the values were obtained:
[1] = tested on: Hela cells; experiment: MTT cytotoxicity assay; assay type: cell-based; conditions: Homo sapiens, Hela cells exposed for 72 hrs
Procedure: Hela cells were used to determine IC50 values for different bisphenols. Therefore cells (1100 cells/well) were seeded in 96 well plates. 24 h after seeding cells were treated with individual bisphenols or corresponding DMSO in indicated concentrations up to 72 h. Subsequently, 10 μL of a MTT stock solution (5 mg/mL) were added to each well for 4 h. The mixture was removed carefully via pipetting, and the remaining formazan crystals formed were dissolved by 100 μL DMSO/10% SDS/0.01 M acetic acid for 15 min. The absorbance (570 nm and reference 620 nm) was determined using an absorbance reader and blank values were subtracted. Prism 6 (GraphPad Software, La Jolla, CA, USA) was used to calculate IC50 values.

[2] = biological target: T1, K-Ras4B bound to GDP (Homo sapiens, UniProt P01116); conditions: NMR titration, cited from earlier work
T1 construct: made in house; host or cells: E. coli

[3] = biological target: T2, GDP-bound K-Ras4B (Homo sapiens, UniProt P01116); experiment: Shift of Y157 amide NMR resonance towards active GppNHp-bound state; assay type: binding; conditions: saturated ligand-protein complex
T2 construct: made in house; host or cells: E. coli
Procedure: (§1) The NMR titration experiments, resonance assignments, and data handling were performed as previously published. Spectra were acquired on Bruker DRX 600 and AVANCE III HD 700 spectrometers, except for ^19F NMR spectra that were recorded on a Bruker DPX 250 spectrometer at 235 MHz. The reference experiment for the competitive titration of ^14N SOS^cat and BPAF to ^15N-enriched GDP-bound K-Ras4B was acquired in the presence of 0.2 mM BPAF in PBS at pH 7.4. Upon titration of ^14N SOS^cat to a 0.4 mM sample of GDP-bound ^15N-enriched K-Ras4B, line broadening and/or disappearance of NMR resonances for GDP-loaded K-Ras4B bound to SOS^cat is observed probably due to rotational correlation effects of the approx. 80 kDa protein-protein complex. Line broadening can already be detected in 2D ^1H-^15N HSQC spectra of ^14N SOS^cat:^15N-enriched GDP-bound K-Ras4B at a molar ratio of 1:1, and this effect is more pronounced when extra SOS^cat is added to adjust a molar ratio of 1:2. Addition of an increasing amount of BPAF to the 1:2 ^15N-enriched K-Ras4B/^14N SOS^cat complex (1:2:0.5, 1:2:1, 1:2:4) recovers the backbone amide proton NMR resonances in 2D ^1H-^15N HSQC spectra. The acquired NMR spectrum is similar to the ^15N-enriched GDP-bound K-Ras4B:BPAF ^1H-^15N HSQC spectrum.

[4] = biological target: T3, K-Ras4B (Homo sapiens, UniProt P01116); parameters: made in house; host or cells: E. coli (given for K-Ras4B only); method as in PMID 26867649; conditions: cited from earlier work
[5] = biological target: T3, K-Ras4B; experiment: SOScat-catalysed guanine nucleotide exchange assay (mant-GDP fluorescence); assay type: biochemical; parameters: made in house; host or cells: E. coli (given for K-Ras4B only)
Procedure: (§2) The SOS^cat assay was performed as described. Briefly, a solution of 1 µM Ras*mantGDP, 200 µM GDP was mixed with different concentrations of BPNH2 and incubated at 20 °C for 5–10 min. To prevent insolubility of the BPNH2, 5% v/v DMSO was applied. After adding 0.5 µM of SOS^cat, a fluorescence spectrum was recorded with a Perkin Elmer LS50B instrument applying an excitation wavelength of 366 nm and an emission wavelength of 442 nm. The kobs value describing the dissociation rate of the nucleotide is obtained for each BPNH2 concentration from a single exponential fit to the fluorescence time course. The GDI (guanine nucleotide dissociation inhibitor) assay is carried out similar to the SOS^cat assay: Instead of mantGDP, the non-hydrolysable GTP analogue mantGppNHp is used but no SOS^cat is added here. Again, the dissociation of the fluorescent nucleotide from Ras in the presence of various BPNH2 concentrations is detected by the decrease of fluorescence and the time dependence yields the kobs values. A plot of the kobs values versus BPNH2 concentration fitted by a binding isotherm yields the KD value of the BPNH2 complex (Figure 4 and Figure S7).

[6] = tested on: AKT kinase; experiment: Western blot of AKT phosphorylation (pAKT/total AKT); assay type: cell-based; conditions: serum-starved HEK293T cells, BPAF 20 µM, BPNH2 33 µM
Procedure: (§3) G-LISA Ras activation assay was performed as described before. Briefly, HEK293T cells were seeded in 10-cm dishes followed by overnight incubation and afterwards serum-starved for 16 h. Cells were then treated with individual bisphenols (BPAF [20 µM] and BPNH2 [33 µM]) or DMSO (control, Ctrl) in a time-dependent manner (1, 2, 4 h), subsequently lysed and the protein concentration was determined using Precision RedTM Advanced Protein Assay Reagent. Quantitative analysis of active Ras was performed with a G-LISA Ras activation assay (Cytoskeleton, Inc., Denver CO, USA) using 1 mg/mL of the sample. The signal intensity was determined by measuring absorbance at 490 nm using a microplate spectrophotometer. Additionally, these lysates were subjected to western blot analysis in order to determine the activation of ERK and AKT signalling. To test for statistical significance, a two-tailed Student’s t-test was applied using Prism version 5.0 (GraphPad Software, La Jolla, CA, USA).

[7] = biological target: T1, K-Ras4B bound to GDP; experiment: NMR titration (1H-15N HSQC chemical shift perturbation) of GDP-bound K-Ras4B; assay type: binding
Procedure: The NMR titration experiments, resonance assignments, and data handling were performed as previously published. Spectra were acquired on Bruker DRX 600 and AVANCE III HD 700 spectrometers, except for ^19F NMR spectra that were recorded on a Bruker DPX 250 spectrometer at 235 MHz. The reference experiment for the competitive titration of ^14N SOS^cat and BPAF to ^15N-enriched GDP-bound K-Ras4B was acquired in the presence of 0.2 mM BPAF in PBS at pH 7.4.

[8] = biological target: T3, K-Ras4B; experiment: GDI (guanine nucleotide dissociation inhibition) assay with mantGppNHp; assay type: biochemical; parameters: made in house; host or cells: E. coli
Procedure: as §2
Supporting Figure 7. GDI assay carried out in triplicate (black, red, green; upper panel): The GDI (guanine nucleotide dissociation inhibitor) assay is carried out similar to the SOScat assay: Instead of mantGDP, the non-hydrolysable GTP analogue mantGppNHp is used but no SOScat is added here. Again, the dissociation of the fluorescent nucleotide from Ras in the presence of various
BPNH2 concentrations is detected by the decrease of fluorescence and the time dependence yields the kobs values. A plot of the kobs values versus BPNH2 concentration fitted by a binding isotherm yields the KD value of the BPNH2 complex (please also refer to […]
MTT cytotoxicity assay (lower four panels): The IC50 values in Hela cells exposed for 72 hrs to BPs were determined as follows: 53.79 […]
(1 picture or pasted object on this page, not shown here)

[9] = tested on: ERK; experiment: Western blot of ERK phosphorylation (pERK/total ERK); assay type: cell-based; conditions: serum-starved HEK293T cells, BPAF 20 µM, BPNH2 33 µM
Procedure: as §3

[10] = biological target: T4, GDP-bound K-Ras4B/SOS^cat complex (Homo sapiens, UniProt P01116); experiment: Competitive NMR titration of 15N K-Ras4B with 14N SOScat and ligand; assay type: binding; conditions: BPAF added to 1:2 K-Ras4B/SOScat complex, recovery of resonances
T4 construct: made in house; host or cells: E. coli (given for K-Ras4B only)
Procedure: as §1

[11] = biological target: T5, H-Ras (Homo sapiens, UniProt P01112); experiment: NMR-based titration of H-Ras; assay type: binding
T5 construct: made in house; host or cells: E. coli

[12] = biological target: T6, N-Ras (1-170) (Homo sapiens, UniProt P01111); experiment: NMR-based titration of N-Ras; assay type: binding
T6 construct: For N-Ras (1-170), we also observed a similar pattern of CSPs; made in house

[13] = biological target: T7, Rap-1A (Homo sapiens, UniProt P62834); experiment: NMR titration of Rap-1A; assay type: binding; conditions: up to a BPAF concentration of 5 mM
T7 construct: Rap1A comprising residues 1–170 were expressed in E. coli; made in house; host or cells: E. coli
T7 sequence (P62834 1-170): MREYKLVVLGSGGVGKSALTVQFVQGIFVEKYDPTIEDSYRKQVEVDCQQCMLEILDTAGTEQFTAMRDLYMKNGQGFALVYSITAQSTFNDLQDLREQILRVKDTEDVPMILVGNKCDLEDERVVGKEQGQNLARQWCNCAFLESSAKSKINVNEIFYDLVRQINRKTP

[14] = tested on: Ras; experiment: G-LISA Ras activation assay; assay type: cell-based; conditions: serum-starved HEK293T cells, BPAF 20 µM, 1, 2, 4 h
Procedure: as §3

[15] = Solubility of the ligands in the NMR study; conditions: NMR study samples
[16] = NMR titration, GDP-bound 15N-enriched K-Ras4B

interference with the SOScat mediated nucleotide exchange [5]: interfere | Kd ([5]; kobs of mGDP dissociation versus ligand concentration, 0.5 µM SOScat, 20 °C, 5% DMSO, read-out: KD from SOScat-assay): 200 ± 100 µM | Kd [7, 16]: 400 µM | GDI-effect (inhibition of nucleotide dissociation) [8]: significant GDI-effect | Kd ([8]; mantGppNHp, no SOScat, triplicate, read-out: KD from GDI-assay): 340 ± 20 µM | shift of Y157 amide resonance relative to the frequency in the active GppNHp-bound state [3]: approx. 64%
Structure (SMILES): Nc1cc(C(c2ccc(O)c(N)c2)(C(F)(F)F)C(F)(F)F)ccc1O [BPNH2, 2,2-Bis(3-amino-4-hydroxyphenyl)hexafluoropropane]
level of phosphorylated AKT kinase (pAKT) [6]: clearly be detected already after 1 h | IC50 [1]: 33 µM | level of ERK phosphorylation / Ras signalling via c-Raf kinase [9]: failed to activate

Kd [7, 16]: 6500 µM
Structure (SMILES): CC(c1ccc(O)cc1)c1ccc(O)cc1 [BPE, 1,1-Bis(4-hydroxyphenyl)ethane]

Kd [7, 16]: 14000 µM
Structure (SMILES): Oc1ccc(Cc2ccc(O)cc2)cc1 [BPF, 4,4′-Methylenediphenol]

solubility comment [15]: insoluble
Structure (SMILES): Oc1ccc(C2(c3ccc(O)cc3)c3ccccc3-c3ccccc32)cc1 [BPFL, 4,4′-(9-Fluorenylidene)diphenol]

Kd [7, 16]: 3600 µM
Structure (SMILES): CCC(C)(c1ccc(O)cc1)c1ccc(O)cc1 [BPB, 2,2-Bis(4-hydroxyphenyl)butane]

solubility comment [15]: insoluble
Structure (SMILES): CC(c1ccccc1)(c1ccc(O)cc1)c1ccc(O)cc1 [BPAP, 4,4′-(1-Phenylethylidene)bisphenol]

Continued, molecule first:

Structure (SMILES): O=S(=O)(c1ccc(O)cc1)c1ccc(O)cc1 [BPS, 4,4′-Sulfonyldiphenol]
IC50 [1]: 119 µM | Kd ([2]; listed as S): 6000 ± 700 µM | Kd [2]: 5800 µM | shift of Y157 amide resonance relative to the frequency in the active GppNHp-bound state [3]: 20% | interference with GEF (Sos)-mediated nucleotide exchange from GDP to GTP [4]: cannot interfere

Structure (SMILES): CC(C)(c1ccc(O)cc1)c1ccc(O)cc1 [BPA, 2,2-Bis(4-hydroxyphenyl)propane]
IC50 [1]: 53.8 µM | shift of Y157 amide resonance relative to the frequency in the active GppNHp-bound state [3]: 49% | interference with GEF (Sos)-mediated nucleotide exchange from GDP to GTP [4]: can interfere

Structure (SMILES): Oc1ccc(C(c2ccc(O)cc2)(C(F)(F)F)C(F)(F)F)cc1 [BPAF, 2,2-Bis(4-hydroxyphenyl)hexafluoropropane]
antagonism of the interaction between GDP-bound K-Ras4B and SOScat [10]: can antagonise | interference with the SOScat mediated nucleotide exchange [5]: interfere | level of phosphorylated AKT kinase (pAKT) [6]: slightly elevated levels of phosphorylated AKT kinase (pAKT) after 2 h | IC50 [1]: 17.8 µM | Kd [11]: 400 ± 20 µM | Kd [12]: 770 ± 20 µM | Kd [7, 16]: 350 ± 20 µM | Kd ([7]; calculated from six binding pocket residues (L6, V9, Y40, L56, T74, G75), Fig. S1): 347 ± 5 µM | GDI-effect (inhibition of nucleotide dissociation) [8]: no or only a very small effect | chemical shift perturbations (CSPs) on titration [13]: could not be detected | shift of Y157 amide resonance relative to the frequency in the active GppNHp-bound state [3]: 58% | level of ERK phosphorylation / Ras signalling via c-Raf kinase [9]: increased the level of ERK phosphorylation | Ras activity (G-LISA) [14]: significant and time-dependent augmentation of Ras activity

Structure (SMILES): Oc1ccc(C(c2ccccc2)(c2ccccc2)c2ccc(O)cc2)cc1 [BPBP, Bis(4-hydroxyphenyl)diphenylmethane]
solubility comment [15]: insoluble

Structure (SMILES): Oc1ccc(C(F)(F)F)cc1 [AFX, 4-(Trifluoromethyl)phenol, reference compound]
Kd [7, 16]: > 50000 µM
